Reference: article PMC5078040 (Oncotarget, 2016)

How the values were obtained:
SNRK = biological target: T1, SNRK (Homo sapiens, UniProt Q9NRH2); experiment: KinomeScan; assay type: binding; details: 1uM
T1 construct: purchased DiscoveRx KINOMEscan

MYLK = biological target: T2, MYLK (Homo sapiens, UniProt Q15746); experiment: KinomeScan; assay type: binding; details: 1uM
T2 construct: purchased DiscoveRx KINOMEscan

GRK1 = biological target: T3, GRK1 (Homo sapiens, UniProt Q15835); experiment: KinomeScan; assay type: binding; details: 1uM
T3 construct: purchased DiscoveRx KINOMEscan

EGFR(E746-A750del) = biological target: T4, EGFR(E746-A750del) (Homo sapiens, UniProt P00533, DEL746-750); experiment: KinomeScan; assay type: binding; details: 1uM
T4 construct: purchased DiscoveRx KINOMEscan

PFTK1 = biological target: T5, PFTK1 (Homo sapiens, UniProt O94921); experiment: KinomeScan; assay type: binding; details: 1uM
T5 construct: purchased DiscoveRx KINOMEscan

p38-beta = biological target: T6, p38-beta (Homo sapiens, UniProt Q15759); experiment: KinomeScan; assay type: binding; details: 1uM
T6 construct: purchased DiscoveRx KINOMEscan

PRKCH = biological target: T7, PRKCH (Homo sapiens, UniProt P24723); experiment: KinomeScan; assay type: binding; details: 1uM
T7 construct: purchased DiscoveRx KINOMEscan

KIT(D816H) = biological target: T8, KIT(D816H) (Homo sapiens, UniProt P10721, D816H); experiment: KinomeScan; assay type: binding; details: 1uM
T8 construct: purchased DiscoveRx KINOMEscan

ARK5 = biological target: T9, ARK5 (Homo sapiens, UniProt O60285); experiment: KinomeScan; assay type: binding; details: 1uM
T9 construct: purchased DiscoveRx KINOMEscan

PRKCQ = biological target: T10, PRKCQ (Homo sapiens, UniProt Q04759); experiment: KinomeScan; assay type: binding; details: 1uM
T10 construct: purchased DiscoveRx KINOMEscan

ERK5 = biological target: T11, ERK5 (Homo sapiens, UniProt Q13164); experiment: KinomeScan; assay type: binding; details: 1uM
T11 construct: purchased DiscoveRx KINOMEscan

PIK3C2G = biological target: T12, PIK3C2G (Homo sapiens, UniProt O75747); experiment: KinomeScan; assay type: binding; details: 1uM
T12 construct: purchased DiscoveRx KINOMEscan

p38-alpha = biological target: T13, p38-alpha (Homo sapiens, UniProt Q16539); experiment: KinomeScan; assay type: binding; details: 1uM
T13 construct: purchased DiscoveRx KINOMEscan

FAK = biological target: T14, FAK (Homo sapiens, UniProt Q05397); experiment: KinomeScan; assay type: binding; details: 1uM
T14 construct: purchased DiscoveRx KINOMEscan

PDGFRB = biological target: T15, PDGFRB (Homo sapiens, UniProt P09619); experiment: KinomeScan; assay type: binding; details: 1uM
T15 construct: purchased DiscoveRx KINOMEscan

MEK1 = biological target: T16, MEK1 (Homo sapiens, UniProt Q02750); experiment: KinomeScan; assay type: binding; details: 1uM
T16 construct: purchased DiscoveRx KINOMEscan

CDKL3 = biological target: T17, CDKL3 (Homo sapiens, UniProt Q8IVW4); experiment: KinomeScan; assay type: binding; details: 1uM
T17 construct: purchased DiscoveRx KINOMEscan

GRK7 = biological target: T18, GRK7 (Homo sapiens, UniProt Q8WTQ7); experiment: KinomeScan; assay type: binding; details: 1uM
T18 construct: purchased DiscoveRx KINOMEscan

AKT1 = biological target: T19, AKT1 (Homo sapiens, UniProt P31749); experiment: KinomeScan; assay type: binding; details: 1uM
T19 construct: purchased DiscoveRx KINOMEscan

HT (B-NHL) = experiment: Colony formation assay; assay type: cell-based; details: Homo sapiens, HT15, 360 h, 15 days, read-out: anti-colony formation EC50
Description: (§1) In brief, 1 mL of 3 % agarose combined with 1 mL HT, REC-1, MEC-1 and MOLM-13 growth media was used as the bottom agar in a 6-well plate. […] Cells were maintained in a humidified 5% CO2 incubator at 37°C for 15 days. On the 15th day, the numbers of colonies in each well were counted and each measurement was performed in triplicate.

MOLM13 (AML) = experiment: Colony formation assay; assay type: cell-based; details: Homo sapiens, MOLM-13, 360 h; MOLM13, 15 days; read-out: anti-colony formation EC50
Description: as §1

MEC-1 (CLL) = experiment: Colony formation assay; assay type: cell-based; details: Homo sapiens, MEC1, 360 h; MEC-1, 15 days; read-out: anti-colony formation EC50
Description: as §1

BTK = biological target: T20, BTK (Homo sapiens, UniProt Q06187); experiment: KinomeScan; assay type: binding; details: 1uM
T20 construct: purchased DiscoveRx KINOMEscan

SLK = biological target: T21, SLK (Homo sapiens, UniProt Q9H2G2); experiment: KinomeScan; assay type: binding; details: 1uM
T21 construct: purchased DiscoveRx KINOMEscan

ERBB3 = biological target: T22, ERBB3 (Homo sapiens, UniProt P21860); experiment: KinomeScan; assay type: binding; details: 1uM
T22 construct: purchased DiscoveRx KINOMEscan

JNK1 = biological target: T23, JNK1 (Homo sapiens, UniProt P45983); experiment: KinomeScan; assay type: binding; details: 1uM
T23 construct: purchased DiscoveRx KINOMEscan

PRKCE = biological target: T24, PRKCE (Homo sapiens, UniProt Q02156); experiment: KinomeScan; assay type: binding; details: 1uM
T24 construct: purchased DiscoveRx KINOMEscan

EPHB2 = biological target: T25, EPHB2 (Homo sapiens, UniProt P29323); experiment: KinomeScan; assay type: binding; details: 1uM
T25 construct: purchased DiscoveRx KINOMEscan

ASK1 = biological target: T26, ASK1 (Homo sapiens, UniProt Q99683); experiment: KinomeScan; assay type: binding; details: 1uM
T26 construct: purchased DiscoveRx KINOMEscan

ULK3 = biological target: T27, ULK3 (Homo sapiens, UniProt Q6PHR2); experiment: KinomeScan; assay type: binding; details: 1uM
T27 construct: purchased DiscoveRx KINOMEscan

BUB1 = biological target: T28, BUB1 (Homo sapiens, UniProt O43683); experiment: KinomeScan; assay type: binding; details: 1uM
T28 construct: purchased DiscoveRx KINOMEscan

FLT3(D835Y) = biological target: T29, FLT3(D835Y) (Homo sapiens, UniProt P36888, D835Y); experiment: KinomeScan; assay type: binding; details: 1uM
T29 construct: purchased DiscoveRx KINOMEscan

MAP4K5 = biological target: T30, MAP4K5 (Homo sapiens, UniProt Q9Y4K4); experiment: KinomeScan; assay type: binding; details: 1uM
T30 construct: purchased DiscoveRx KINOMEscan

PLK3 = biological target: T31, PLK3 (Homo sapiens, UniProt Q9H4B4); experiment: KinomeScan; assay type: binding; details: 1uM
T31 construct: purchased DiscoveRx KINOMEscan

FGFR3(G697C) = biological target: T32, FGFR3(G697C) (Homo sapiens, UniProt P22607, G697C); experiment: KinomeScan; assay type: binding; details: 1uM
T32 construct: purchased DiscoveRx KINOMEscan

ABL1-nonphosphorylated = biological target: T33, ABL1-nonphosphorylated (Homo sapiens, UniProt P00519); experiment: KinomeScan; assay type: binding; details: 1uM
T33 construct: purchased DiscoveRx KINOMEscan

FLT3(ITD) = experiment: KinomeScan; assay type: binding; details: 1uM
PHKG2 = biological target: T34, PHKG2 (Homo sapiens, UniProt P15735); experiment: KinomeScan; assay type: binding; details: 1uM
T34 construct: purchased DiscoveRx KINOMEscan

MLK3 = biological target: T35, MLK3 (Homo sapiens, UniProt Q16584); experiment: KinomeScan; assay type: binding; details: 1uM
T35 construct: purchased DiscoveRx KINOMEscan

ROCK2 = biological target: T36, ROCK2 (Homo sapiens, UniProt O75116); experiment: KinomeScan; assay type: binding; details: 1uM
T36 construct: purchased DiscoveRx KINOMEscan

SRPK3 = biological target: T37, SRPK3 (Homo sapiens, UniProt Q9UPE1); experiment: KinomeScan; assay type: binding; details: 1uM
T37 construct: purchased DiscoveRx KINOMEscan

T1 sequence (Q9NRH2 whole entry): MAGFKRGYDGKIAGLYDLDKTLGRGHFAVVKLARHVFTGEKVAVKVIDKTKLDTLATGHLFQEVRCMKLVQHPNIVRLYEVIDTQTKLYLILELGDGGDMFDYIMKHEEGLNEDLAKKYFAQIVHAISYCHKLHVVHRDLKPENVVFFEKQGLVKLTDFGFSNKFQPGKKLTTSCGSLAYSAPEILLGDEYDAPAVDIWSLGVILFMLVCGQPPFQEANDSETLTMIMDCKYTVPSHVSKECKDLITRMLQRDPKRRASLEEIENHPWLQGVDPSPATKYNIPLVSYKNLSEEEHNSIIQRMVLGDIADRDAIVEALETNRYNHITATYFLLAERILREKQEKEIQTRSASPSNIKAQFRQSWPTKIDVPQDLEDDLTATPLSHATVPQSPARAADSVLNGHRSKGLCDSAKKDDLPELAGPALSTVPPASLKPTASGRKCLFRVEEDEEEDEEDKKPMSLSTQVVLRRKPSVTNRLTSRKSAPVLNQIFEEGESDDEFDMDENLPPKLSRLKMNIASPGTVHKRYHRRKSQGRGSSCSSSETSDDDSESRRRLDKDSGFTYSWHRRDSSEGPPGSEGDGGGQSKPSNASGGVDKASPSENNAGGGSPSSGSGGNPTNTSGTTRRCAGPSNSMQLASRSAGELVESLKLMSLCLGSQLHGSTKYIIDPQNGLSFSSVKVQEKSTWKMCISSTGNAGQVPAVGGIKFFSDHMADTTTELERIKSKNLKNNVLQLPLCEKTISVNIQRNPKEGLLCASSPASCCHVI
T21 sequence (Q9H2G2 whole entry): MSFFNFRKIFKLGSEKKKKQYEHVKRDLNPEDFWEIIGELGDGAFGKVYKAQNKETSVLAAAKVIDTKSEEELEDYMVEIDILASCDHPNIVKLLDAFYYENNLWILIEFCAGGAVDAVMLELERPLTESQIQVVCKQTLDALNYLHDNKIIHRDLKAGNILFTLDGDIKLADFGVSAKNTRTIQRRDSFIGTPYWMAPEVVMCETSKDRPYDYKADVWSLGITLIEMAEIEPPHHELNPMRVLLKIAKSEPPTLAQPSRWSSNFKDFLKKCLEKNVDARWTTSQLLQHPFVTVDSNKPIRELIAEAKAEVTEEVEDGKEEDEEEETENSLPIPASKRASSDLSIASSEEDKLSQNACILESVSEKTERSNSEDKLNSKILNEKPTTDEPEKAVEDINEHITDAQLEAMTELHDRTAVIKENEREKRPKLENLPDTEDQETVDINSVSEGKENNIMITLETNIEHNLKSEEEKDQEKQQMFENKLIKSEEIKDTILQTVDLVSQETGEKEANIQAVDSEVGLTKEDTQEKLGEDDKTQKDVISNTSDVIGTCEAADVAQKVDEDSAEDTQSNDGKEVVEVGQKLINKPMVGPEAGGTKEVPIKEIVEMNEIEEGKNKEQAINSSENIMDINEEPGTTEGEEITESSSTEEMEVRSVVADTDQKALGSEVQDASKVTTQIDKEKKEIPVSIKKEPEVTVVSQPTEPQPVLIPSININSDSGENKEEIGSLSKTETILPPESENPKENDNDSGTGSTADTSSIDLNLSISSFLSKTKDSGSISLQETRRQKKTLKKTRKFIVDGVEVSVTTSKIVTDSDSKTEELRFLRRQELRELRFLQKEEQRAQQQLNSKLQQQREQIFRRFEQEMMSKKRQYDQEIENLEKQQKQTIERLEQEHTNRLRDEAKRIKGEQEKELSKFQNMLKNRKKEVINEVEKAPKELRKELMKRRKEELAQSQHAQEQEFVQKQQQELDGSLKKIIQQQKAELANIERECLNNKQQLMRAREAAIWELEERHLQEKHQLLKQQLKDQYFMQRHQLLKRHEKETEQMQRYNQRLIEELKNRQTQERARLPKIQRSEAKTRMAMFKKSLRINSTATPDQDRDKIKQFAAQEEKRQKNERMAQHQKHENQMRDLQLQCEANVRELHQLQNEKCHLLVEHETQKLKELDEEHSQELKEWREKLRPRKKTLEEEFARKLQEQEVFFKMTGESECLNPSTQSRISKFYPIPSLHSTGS
T24 sequence (Q02156 whole entry): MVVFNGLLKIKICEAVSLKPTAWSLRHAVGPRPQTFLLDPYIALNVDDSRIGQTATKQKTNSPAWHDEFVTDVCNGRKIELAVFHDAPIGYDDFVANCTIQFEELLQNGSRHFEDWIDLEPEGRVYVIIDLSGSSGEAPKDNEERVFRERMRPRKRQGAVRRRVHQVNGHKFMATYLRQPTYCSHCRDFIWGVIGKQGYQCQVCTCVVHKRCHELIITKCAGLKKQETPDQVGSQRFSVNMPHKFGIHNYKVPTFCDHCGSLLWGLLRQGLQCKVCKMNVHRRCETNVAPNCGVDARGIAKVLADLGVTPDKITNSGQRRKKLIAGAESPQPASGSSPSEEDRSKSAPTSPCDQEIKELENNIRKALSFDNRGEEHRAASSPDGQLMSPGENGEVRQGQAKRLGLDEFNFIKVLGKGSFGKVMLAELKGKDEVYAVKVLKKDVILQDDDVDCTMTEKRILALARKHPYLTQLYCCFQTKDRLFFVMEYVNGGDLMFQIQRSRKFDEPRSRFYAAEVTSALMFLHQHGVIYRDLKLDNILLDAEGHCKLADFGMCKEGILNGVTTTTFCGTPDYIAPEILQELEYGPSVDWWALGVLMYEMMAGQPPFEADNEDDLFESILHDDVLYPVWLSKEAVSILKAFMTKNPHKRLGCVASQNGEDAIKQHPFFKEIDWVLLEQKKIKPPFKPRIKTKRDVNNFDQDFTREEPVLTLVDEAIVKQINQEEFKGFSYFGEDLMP
T12 sequence (O75747 whole entry): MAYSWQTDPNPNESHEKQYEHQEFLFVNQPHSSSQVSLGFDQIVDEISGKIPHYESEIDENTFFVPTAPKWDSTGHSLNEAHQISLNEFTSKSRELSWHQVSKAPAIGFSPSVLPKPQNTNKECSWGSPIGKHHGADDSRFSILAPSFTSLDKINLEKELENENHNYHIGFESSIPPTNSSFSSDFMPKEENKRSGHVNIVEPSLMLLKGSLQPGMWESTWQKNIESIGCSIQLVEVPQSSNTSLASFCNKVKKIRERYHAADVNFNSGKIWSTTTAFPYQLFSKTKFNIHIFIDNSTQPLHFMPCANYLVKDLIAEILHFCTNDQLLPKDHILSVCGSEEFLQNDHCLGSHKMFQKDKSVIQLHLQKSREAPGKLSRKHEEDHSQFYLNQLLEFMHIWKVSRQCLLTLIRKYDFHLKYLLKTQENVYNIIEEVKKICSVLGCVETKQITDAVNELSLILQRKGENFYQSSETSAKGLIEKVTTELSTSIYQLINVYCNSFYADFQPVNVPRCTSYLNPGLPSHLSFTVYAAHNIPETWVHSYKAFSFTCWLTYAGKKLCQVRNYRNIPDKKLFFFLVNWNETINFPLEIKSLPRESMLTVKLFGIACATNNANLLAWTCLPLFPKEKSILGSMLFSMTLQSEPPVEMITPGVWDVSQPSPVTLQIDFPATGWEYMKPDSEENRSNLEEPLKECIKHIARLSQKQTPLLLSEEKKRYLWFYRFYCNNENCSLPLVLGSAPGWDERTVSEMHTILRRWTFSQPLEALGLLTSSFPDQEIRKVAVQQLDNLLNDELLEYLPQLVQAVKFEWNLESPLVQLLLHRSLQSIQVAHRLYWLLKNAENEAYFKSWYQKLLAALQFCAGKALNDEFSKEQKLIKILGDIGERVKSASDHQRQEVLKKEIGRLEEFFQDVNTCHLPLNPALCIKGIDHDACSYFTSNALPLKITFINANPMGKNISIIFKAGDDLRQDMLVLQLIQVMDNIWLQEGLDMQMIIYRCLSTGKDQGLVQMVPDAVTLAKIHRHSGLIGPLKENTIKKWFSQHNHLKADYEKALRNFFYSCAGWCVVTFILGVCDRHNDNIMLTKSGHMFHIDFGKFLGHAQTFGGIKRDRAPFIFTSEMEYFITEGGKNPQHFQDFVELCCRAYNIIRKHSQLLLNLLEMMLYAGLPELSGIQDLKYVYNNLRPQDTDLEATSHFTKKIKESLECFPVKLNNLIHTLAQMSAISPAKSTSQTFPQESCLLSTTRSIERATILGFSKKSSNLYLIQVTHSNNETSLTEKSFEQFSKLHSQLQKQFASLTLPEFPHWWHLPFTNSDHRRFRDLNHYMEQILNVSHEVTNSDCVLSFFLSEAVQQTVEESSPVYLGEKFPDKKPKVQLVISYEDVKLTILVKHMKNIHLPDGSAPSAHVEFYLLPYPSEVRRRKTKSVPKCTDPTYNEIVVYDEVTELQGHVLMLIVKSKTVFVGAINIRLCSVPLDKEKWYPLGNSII
T16 sequence (Q02750 whole entry): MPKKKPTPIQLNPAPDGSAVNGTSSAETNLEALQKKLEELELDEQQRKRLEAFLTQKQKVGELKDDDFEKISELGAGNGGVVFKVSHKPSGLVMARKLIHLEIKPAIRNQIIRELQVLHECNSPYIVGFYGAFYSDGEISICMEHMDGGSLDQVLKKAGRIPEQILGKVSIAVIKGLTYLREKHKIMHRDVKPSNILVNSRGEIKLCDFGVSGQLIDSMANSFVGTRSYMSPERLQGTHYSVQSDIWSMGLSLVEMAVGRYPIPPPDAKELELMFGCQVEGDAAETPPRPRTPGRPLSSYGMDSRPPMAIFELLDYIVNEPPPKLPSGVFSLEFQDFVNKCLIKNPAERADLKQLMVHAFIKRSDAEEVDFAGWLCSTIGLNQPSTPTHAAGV
T19 sequence (P31749 whole entry): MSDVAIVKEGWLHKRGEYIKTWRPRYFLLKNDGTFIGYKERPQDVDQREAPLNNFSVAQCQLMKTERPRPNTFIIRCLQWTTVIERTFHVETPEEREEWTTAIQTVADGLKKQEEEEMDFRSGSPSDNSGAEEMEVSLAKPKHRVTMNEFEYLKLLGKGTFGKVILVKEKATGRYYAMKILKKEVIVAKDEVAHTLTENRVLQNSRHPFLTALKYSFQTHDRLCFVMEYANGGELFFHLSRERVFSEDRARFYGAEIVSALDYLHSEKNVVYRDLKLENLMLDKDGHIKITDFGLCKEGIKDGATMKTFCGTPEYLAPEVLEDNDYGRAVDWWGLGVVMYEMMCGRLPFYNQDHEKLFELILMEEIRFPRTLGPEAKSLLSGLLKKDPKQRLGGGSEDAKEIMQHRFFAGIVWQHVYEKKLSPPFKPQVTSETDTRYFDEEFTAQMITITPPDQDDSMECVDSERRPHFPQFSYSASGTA

SMILES: Cc1nc(NC(=O)[C@@H](N)C(C)C)sc1-c1cnc(Cl)c(NS(=O)(=O)c2ccccc2)c1 [PI3KD-IN-015]
- KinomeScan SNRK (SNRK): 100
- KinomeScan MYLK (MYLK): 94
- KinomeScan GRK1 (GRK1): 99
- KinomeScan EGFR(E746-A750del) (EGFR(E746-A750del)): 100
- KinomeScan PFTK1 (PFTK1): 100
- KinomeScan p38-beta (p38-beta): 86
- KinomeScan PRKCH (PRKCH): 100
- KinomeScan KIT(D816H) (KIT(D816H)): 92
- KinomeScan ARK5 (ARK5): 87
- KinomeScan PRKCQ (PRKCQ): 100
- KinomeScan ERK5 (ERK5): 100
- KinomeScan PIK3C2G (PIK3C2G): 65
- KinomeScan p38-alpha (p38-alpha): 100
- KinomeScan FAK (FAK): 80
- KinomeScan PDGFRB (PDGFRB): 98
- KinomeScan MEK1 (MEK1): 100
- KinomeScan CDKL3 (CDKL3): 100
- KinomeScan GRK7 (GRK7): 97
- KinomeScan AKT1 (AKT1): 91
- EC50 (HT (B-NHL)): 374 nM
- EC50 (MOLM13 (AML)): 215 nM
- EC50 (MEC-1 (CLL)): 765 nM
- KinomeScan BTK (BTK): 81
- KinomeScan SLK (SLK): 100
- KinomeScan ERBB3 (ERBB3): 100
- KinomeScan JNK1 (JNK1): 100
- KinomeScan PRKCE (PRKCE): 100
- KinomeScan EPHB2 (EPHB2): 100
- KinomeScan ASK1 (ASK1): 88
- KinomeScan ULK3 (ULK3): 88
- KinomeScan BUB1 (BUB1): 100
- KinomeScan FLT3(D835Y) (FLT3(D835Y)): 98
- KinomeScan MAP4K5 (MAP4K5): 100
- KinomeScan PLK3 (PLK3): 76
- KinomeScan FGFR3(G697C) (FGFR3(G697C)): 100
- KinomeScan ABL1-nonphosphorylated (ABL1-nonphosphorylated): 100
- KinomeScan FLT3(ITD) (FLT3(ITD)): 100
- KinomeScan PHKG2 (PHKG2): 91
- KinomeScan MLK3 (MLK3): 100
- KinomeScan ROCK2 (ROCK2): 85
- KinomeScan SRPK3 (SRPK3): 100
